Laboratory results reported in patent US8586638B2, “Parakeratosis inhibitor and skin preparation for external use” (priority 2003, dated 2013).
Where a SMILES comes first, the peptide text is derived from it. [ ]: non-standard residue; d: D form. Sar = CNCC(=O)O

Assays:
[1] = test system: parakeratosis and skin roughness caused by oleic acid on the back of hairless mice; experiment: Parakeratosis inhibition effect test: oleic acid applied to the back of hairless mice, visual skin roughness and parakeratosis level; type: in vivo, hairless mice (HR-1); set-up: key to Evaluation Visual (mean of 4 mice), skin roughness: 0.0 = no roughness, 2.0 = control application; 0.25 steps; settings: for Evaluation Parakeratosis (mean of 4 mice): control 2.0; for Evaluation Visual (mean of 4 mice), skin roughness: score 0.0 no roughness, 2.0 control; for effect of inhibiting parakeratosis (conclusion from Table 4) / effect of inhibiting parakeratosis (conclusion from Table 1): hairless mice, oleic acid; for effect of inhibiting parakeratosis (conclusion from Table 4): fourth embodiment; for effect of inhibiting parakeratosis (conclusion from Table 1): first embodiment
Description: A 3 weight % water solution (including 30 weight % ethanol) was prepared as the evaluation specimen of the glycine derivatives in accordance with the invention 1. The pH was regulated to the range between 7.0 to 7.5, by using hydrochloric acid and sodium hydroxide. When the solubility was low, the solution was adjusted accordingly.
100 microliters of 10 weight % oleic acid (solvent: ethanol) was applied to the back of hairless mice (HR-1, Hoshino laboratory animals). Thereafter, 100 microliters of sample solution was applied (glycine derivatives in accordance with said invention 1) at each time. This procedure was repeated for 3 days. The day after the application, the skin condition of the backs was observed by using a CCD camera to evaluate the skin roughness (stratified ablation of the skin surface stratum corneum and red spots). The skin condition was evaluated visually, with scoring the skin condition of control application to 2.0 and the skin condition of no roughness to 0.0, in a 0.25 point step in response to the skin condition. At the same time, the skin surface stratum corneum of the back of hairless mice was peeled off by using a tape for staining the nucleus with haematoxylin to observe the degrees of parakeratosis (parakeratosis level) and evaluate in 0.25 step in the range from 1.0 to 3.0. The higher evaluation points indicates the larger number of parakeratotic corneocytes count, i.e., severer parakeratosis.
The samples to be evaluated of the glycine derivatives and the salts thereof as well as the aminosulfuric acid derivatives and the salts thereof in accordance with the invention 2 were prepared mainly 3 weight % solution (including 30 weight % ethanol, excluding Hydantoic acid and ACES which include 20 weight % ethanol). pH was regulated by using hydrochloric acid or sodium hydroxide to be 7.0 to 7.5. When the solubility was low, then the solution was prepared accordingly.
100 microliters of 10 weight % oleic acid (solvent: ethanol) was applied to the back of Hairless mice (HR-1, Hoshino laboratory animals) Thereafter, 100 microliters of sample solution (glycine derivatives in accordance with the invention 2) was applied thereon at each time. This procedure was repeated for 3 days. The day after the application, the skin condition of the backs was observed by using a CCD camera to evaluate the skin roughness (stratified ablation of the skin surface stratum corneum and red spots). The skin condition was evaluated visually, with scoring the skin condition of control application to 2.0 and the skin condition of no roughness to 0.0, in a 0.25 point step in response to the skin condition. At the same time, the skin surface stratum corneum of the back of hairless mice was peeled off by using a tape for staining the nucleus with haematoxylin to observe the degrees of parakeratosis and evaluate in 0.25 step in the range from 1.0 to 3.0. The higher evaluation points indicates the larger number of parakeratotic corneocytes count, i.e., severer parakeratosis.

[2] = test system: skin roughness caused by oleic acid on the back of hairless mice; experiment: Inhibitory effect on skin roughness by the application of oleic acid (TEWL value); type: in vivo, hairless mice (HR-1); set-up: ΔTEWL: unit not given here; settings: for decrease of delta-TEWL value as compared to the control solution (conclusion from Table 6): hairless mice, oleic acid, seventh embodiment; for ΔTEWL: after 10 weight % oleic acid, 3 days, four mice per group, control 12.0
Description: To study the inhibitory effect on the skin roughness by the application of oleic acid by the glycine derivatives and the salts thereof as well as the aminosulfuric acid derivatives and the salts thereof in accordance with the invention 2, the […] (TEWL value) before and after the application was measured to compare the difference therebetween with the value of control (control solution) in order to determine the effect. The preparation of samples and the application procedure were in accordance with the embodiment 4. The TEWL value was measured by means of TEWA meter TM210 (Courage+Khazaka Inc.).
100 microliters of 10 weight % oleic acid (solvent: ethanol) was applied to the back of hairless mice (HR-1, four in each group). Thereafter, 100 microliters of sample solutions (glycine derivatives and the salts thereof as well as the aminosulfuric acid derivatives and the salts thereof) in accordance with the invention 2 were applied at each time. This procedure was repeated for 3 days. The day after the application, TEWL value of the back of mice was measured and the values were averaged. The larger delta-TEWL value indicates severer aggravation of skin roughness.

[3] = test system: pores on the cheek of healthy male subjects; experiment: Effect of shrinking human pores: replica evaluation of cheek pores; type: in vivo; settings: for Replica Evaluation (mean of n = 5), difference of pore size score before/after application: twice a day for a month, cheek; for effect of pore-shrinking (conclusion from Table 5) / pore-shrinking effect (conclusion from Table 2): human cheek; for effect of pore-shrinking (conclusion from Table 5): fifth embodiment; for pore-shrinking effect (conclusion from Table 2): second embodiment
Description: An experiment of application of sample twice a day for a month on the cheek of healthy male subjects, was conducted with each group consisting of 5 individuals. 3 weight % solution of the glycine derivatives in accordance with the invention 1 (including 15 weight % of ethanol) was prepared. pH was regulated to the range between 7.0 and 7.5, by using hydrochloric acid and/or sodium hydroxide. Control was 15 weight % ethanol solution. Said 3 weight % solution was applied to one side and said control solution was applied to the other side.
Replicas were prepared prior to and after the application to observe the change of form of pores in the same spot under a three-dimensional laser scanning microscope. The size of pores was evaluated visually 13 steps from 1 to 13 (larger number indicates larger pore size), and the difference between the resulted evaluations before/after the application experiment was then calculated to study the effectiveness of each specimen.
An experiment of application of sample twice a day for a month on the cheek of healthy male subjects, was conducted with each group consisting of 5 individuals. 3 weight % solution of the glycine derivatives and the salts thereof as well as the aminosulfuric acid derivatives and the salts thereof in accordance with the invention 2 (including 15 weight % of ethanol), 2 weight % solution of ACES (including 15 weight % of ethanol), 3 weight % solution of CAPS (including 15 weight % of ethanol), and 3 weight % solution of CAPSO (including 15 weight % of ethanol) were prepared. pH was regulated to the range between 7.0 and 7.5, by using hydrochloric acid and/or sodium hydroxide. 15 weight % ethanol solution was used as control. Said sample solutions was applied to one side, and said control solution was applied to the other side.

[4] = Table 4, sample 1 weight % in aqueous 30 weight % ethanol (ACES: 20 weight % ethanol), range 1.0 to 3.0
[5] = Table 4, sample 1 weight % in aqueous 30 weight % ethanol (ACES: 20 weight % ethanol)
[6] = Table 4, sample 3 weight % in aqueous 30 weight % ethanol (hydantoic acid: 20 weight % ethanol), range 1.0 to 3.0, higher = severer
[7] = Table 4, sample 3 weight % in aqueous 30 weight % ethanol (hydantoic acid: 20 weight % ethanol)
[8] = sample 3 weight %, larger = severer roughness
[9] = Table 5, 3.0 weight % solution (15 weight % ethanol), control 0.3
[10] = sample 3 weight % in aqueous 30 weight % ethanol, after 10 weight % oleic acid, 3 days, range 1.0 to 3.0, higher = severer
[11] = sample 3 weight % in aqueous 30 weight % ethanol, after 10 weight % oleic acid, 3 days
[12] = 3 weight % solution (15 weight % ethanol), 13 steps, larger = larger pore, control 0.2

## NC(=O)CNCCS(=O)(=O)O [ACES, N-(2-acetamide)-2-aminoethanesulfonic acid]
[1]; [4]
  Evaluation Parakeratosis (mean of 4 mice): 1.2
[1]; [5]
  Evaluation Visual (mean of 4 mice), skin roughness: 1.4
[1]
  effect of inhibiting parakeratosis (conclusion from Table 4): have the effect of inhibiting parakeratosis
[2]
  decrease of delta-TEWL value as compared to the control solution (conclusion from Table 6): significant decrease of delta-TEWL value
[2]; sample 1 weight %
  ΔTEWL: 6.9
[3]; Table 5, 2.0 weight % solution (15 weight % ethanol), control 0.3
  Replica Evaluation (mean of n = 5), difference of pore size score before/after application: −1.5
[3]
  effect of pore-shrinking (conclusion from Table 5): demonstrated the effect of pore-shrinking

## O=S(=O)(O)CCCNC1CCCCC1 [CAPS, 3-(cyclohexyl-amino)propane sulfonic acid]
[1]; [6]
  Evaluation Parakeratosis (mean of 4 mice): 1.2
[1]; [7]
  Evaluation Visual (mean of 4 mice), skin roughness: 1.3
[1]
  effect of inhibiting parakeratosis (conclusion from Table 4): have the effect of inhibiting parakeratosis
[2]
  decrease of delta-TEWL value as compared to the control solution (conclusion from Table 6): significant decrease of delta-TEWL value
[2]; [8]
  ΔTEWL: 8.1
[3]; [9]
  Replica Evaluation (mean of n = 5), difference of pore size score before/after application: −1.4
[3]
  effect of pore-shrinking (conclusion from Table 5): demonstrated the effect of pore-shrinking

## O=S(=O)(O)CC(O)CNC1CCCCC1 (centres unmarked) [CAPSO, 3-(cyclohexyl-amino)-2-hydroxy-propane-sulfonic acid]
[1]; [6]
  Evaluation Parakeratosis (mean of 4 mice): 1.1
[1]; [7]
  Evaluation Visual (mean of 4 mice), skin roughness: 1.3
[1]
  effect of inhibiting parakeratosis (conclusion from Table 4): have the effect of inhibiting parakeratosis
[2]
  decrease of delta-TEWL value as compared to the control solution (conclusion from Table 6): significant decrease of delta-TEWL value
[2]; [8]
  ΔTEWL: 7.9
[3]; [9]
  Replica Evaluation (mean of n = 5), difference of pore size score before/after application: −1.6
[3]
  effect of pore-shrinking (conclusion from Table 5): demonstrated the effect of pore-shrinking

## CC(=O)N[C@@H](CCC(=O)O)C(=O)O [N-acetyl-L-glutamic acid]
[1]
  effect of inhibiting parakeratosis (conclusion from Table 1): have the effect of inhibiting parakeratosis
[1]; [10]
  Evaluation Parakeratosis (mean of 4 mice): 1.2
[1]; [11]
  Evaluation Visual (mean of 4 mice), skin roughness: 1.2
[3]; [12]
  Replica Evaluation (mean of n = 5), difference of pore size score before/after application: −0.8
[3]
  pore-shrinking effect (conclusion from Table 2): pore-shrinking effect was observed

## NCCC(=O)O [beta-alanine]
[1]
  effect of inhibiting parakeratosis (conclusion from Table 1): have the effect of inhibiting parakeratosis
[1]; [10]
  Evaluation Parakeratosis (mean of 4 mice): 1.5
[1]; [11]
  Evaluation Visual (mean of 4 mice), skin roughness: 1.6
[3]; [12]
  Replica Evaluation (mean of n = 5), difference of pore size score before/after application: −0.9
[3]
  pore-shrinking effect (conclusion from Table 2): pore-shrinking effect was observed

## CN(CC(=O)O)C(=O)CN [glycyl-sarcosine, glycyl sarcosine] (H-Gly-[Sar]-OH)
[1]; [6]
  Evaluation Parakeratosis (mean of 4 mice): 1.4
[1]; [7]
  Evaluation Visual (mean of 4 mice), skin roughness: 1.5
[1]
  effect of inhibiting parakeratosis (conclusion from Table 4): have the effect of inhibiting parakeratosis
[3]; [9]
  Replica Evaluation (mean of n = 5), difference of pore size score before/after application: −0.8
[3]
  effect of pore-shrinking (conclusion from Table 5): demonstrated the effect of pore-shrinking

## O=C(O)CNC(=O)c1ccccc1 [hippuric acid, reference compound]
[1]; [4]
  Evaluation Parakeratosis (mean of 4 mice): 1.9
[1]; [5]
  Evaluation Visual (mean of 4 mice), skin roughness: 1.8
[2]; sample 1 weight %
  ΔTEWL: 10.5

## O=C1CNC(=O)N1 [hydantoin, reference compound]
[1]; [4]
  Evaluation Parakeratosis (mean of 4 mice): 2.0
[1]; [5]
  Evaluation Visual (mean of 4 mice), skin roughness: 2.1
[1]
  effect of inhibiting parakeratosis (conclusion from Table 4): did not exhibit such effect
[2]; sample 1 weight %
  ΔTEWL: 17.6

## CC(C(=O)O)N1CCOCC1 (centres unmarked) [methylmorpholino acetate, methylmorpholino acetic acid, reference compound]
[1]; [6]
  Evaluation Parakeratosis (mean of 4 mice): 2.0
[1]; [7]
  Evaluation Visual (mean of 4 mice), skin roughness: 1.9
[2]; [8]
  ΔTEWL: 10.8

## O=C(O)CN(CC(=O)O)CC(=O)O [nitrilotriacetate, nitrilotriacetic acid, reference compound]
[1]; Table 4, sample 0.4 weight % in aqueous 30 weight % ethanol, range 1.0 to 3.0
  Evaluation Parakeratosis (mean of 4 mice): 2.0
[1]; Table 4, sample 0.4 weight % in aqueous 30 weight % ethanol
  Evaluation Visual (mean of 4 mice), skin roughness: 1.9
[2]; sample 0.4 weight %
  ΔTEWL: 11.5

## O=C(O)CNC(=O)Cc1ccccc1 [phenaceturic acid]
[1]
  effect of inhibiting parakeratosis (conclusion from Table 1): have the effect of inhibiting parakeratosis
[1]; [10]
  Evaluation Parakeratosis (mean of 4 mice): 1.1
[1]; [11]
  Evaluation Visual (mean of 4 mice), skin roughness: 1.2
[3]; [12]
  Replica Evaluation (mean of n = 5), difference of pore size score before/after application: −0.8
[3]
  pore-shrinking effect (conclusion from Table 2): pore-shrinking effect was observed

## O=C(O)CNCP(=O)(O)O [phosphomethylglycine, phosphonomethylglycine, reference compound]
[1]; [4]
  Evaluation Parakeratosis (mean of 4 mice): 2.1
[1]; [5]
  Evaluation Visual (mean of 4 mice), skin roughness: 1.9
[2]; sample 1 weight %
  ΔTEWL: 11.4

## CNCC(=O)O [sarcosine, N-methylglycine]
[1]
  effect of inhibiting parakeratosis (conclusion from Table 1): have the effect of inhibiting parakeratosis
[1]; [10]
  Evaluation Parakeratosis (mean of 4 mice): 1.2
[1]; [11]
  Evaluation Visual (mean of 4 mice), skin roughness: 1.3
[3]; [12]
  Replica Evaluation (mean of n = 5), difference of pore size score before/after application: −1.3
[3]
  pore-shrinking effect (conclusion from Table 2): pore-shrinking effect was observed

## O=C(O)CNC(CO)(CO)CO [tricine, reference compound]
[1]; Table 4, sample 2 weight % in aqueous 30 weight % ethanol, range 1.0 to 3.0
  Evaluation Parakeratosis (mean of 4 mice): 2.1
[1]; Table 4, sample 2 weight % in aqueous 30 weight % ethanol
  Evaluation Visual (mean of 4 mice), skin roughness: 2.0
[2]; sample 2 weight %
  ΔTEWL: 12.2
